{"source": "patent US8920854B2", "about": "“Oral care compositions for treating xerostomia” (Georgia Regents Research Institute, priority 2009, dated 2014)", "format_in_all_cases": "in vivo, mouse", "key": {"[1]": {"system": "superoxide dismutase 1 (SOD1)", "experiment": "Antioxidant capacity by immunohistochemistry in NOD mice: SOD1", "details": "EGCG-fed NOD mice, 22 weeks, n=12, P<0.0001", "description": "Salivary gland and pancreas samples were obtained at 22 weeks of age from NOD mice fed water or EGCG-water (12 animals per group), and from control BALB/c mice. The antioxidant capacity represented by protein levels of peroxiredoxin 6, superoxide dismutase 1 (SOD1), catalase, and glutathione peroxidase was measured by immunohistochemstry."}, "[2]": {"system": "peroxiredoxin 6", "experiment": "Antioxidant capacity by immunohistochemistry in NOD mice: peroxiredoxin 6", "details": "22 weeks", "source_text": "(§1) FIGS. 8A-8C, 8D-8F show representative immunostaining of peroxiredoxin 6 (FIGS. 8A-C) and catalase (FIGS. 8D-F) expression in glandular epithelium of 22 week old water-fed (FIGS. 8A, 8D) and EGCG-treated NOD mice (FIGS. 8B, 8E) (magnification 200×). FIGS. 8C and 8F show statistical analysis of peroxiredoxin 6 and Catalase-positive cells. Black arrows point to ductal cells; open arrow to acinar cells (FIG. 8B). Salivary gland and pancreas samples were obtained at 22 weeks of age from NOD mice fed water or EGCG-water (12 animals per group), and from control BALB/c mice. The antioxidant capacity represented by protein levels of peroxiredoxin 6, superoxide dismutase 1 (SOD1), catalase, and glutathione peroxidase was measured by immunohistochemstry."}, "[3]": {"system": "catalase", "experiment": "Antioxidant capacity by immunohistochemistry in NOD mice: catalase", "details": "submandibular salivary glands, EGCG-fed NOD/Lt mice, 22 weeks; n=12, p<0.04", "source_text": "as §1"}, "[4]": {"system": "PCNA", "experiment": "PCNA immunostaining of submandibular glands, NOD/Lt mice", "details": "0.2% EGCG in drinking water, between 16 and 22 weeks of age", "source_text": "(§2) Submandibular salivary gland samples from BALB/c (left), water-fed (middle), and EGCG-fed (right) NOD/Lt mice were stained with ApopTag Plus Peroxidase in situ apoptosis detection method according to the manufacturer's instructions. Arrows point to the nuclear staining of TUNEL-positive cells. […] Submandibular salivary gland samples from BALB/c (left), water-fed (middle), and EGCG-fed (right) NOD/Lt mice were immunostained with the anti-PCNA antibody. Arrows point to the nuclear staining of PCNA-positive cells. […] Submandibular salivary gland samples from BALB/c (left), water-fed (middle), and EGCG-fed (right) NOD/Lt mice were immunostained with the anti-Ki-67 antibody. Arrows point to the nuclear staining of Ki-67-positive cells. […] Solid bars represent the average percentage of TUNEL-positive cells in the submandibular gland of water-fed NOD/Lt mice. Open bars represent the average of TUNEL-positive cells in the submandibular gland of EGCG-fed NOD/Lt mice. […] Solid bars represent the average percentage of PCNA-positive cells in the submandibular gland of water-fed NOD/Lt mice. Open bars represent the average of PCNA-positive cells in the submandibular gland of EGCG-fed NOD/Lt mice. […] Solid bars represent the average of Ki-67-positive cells in the submandibular gland of water-fed NOD/Lt mice. Open bars represent the average of Ki-67-positive cells in the submandibular gland of […] […]"}, "[5]": {"system": "Ki-67", "experiment": "Ki-67 immunostaining of submandibular glands, NOD/Lt mice", "details": "0.2% EGCG in drinking water, 8, 16, 22 weeks", "source_text": "as §2"}, "[6]": {"system": "NOD/Lt mice", "experiment": "Submandibular gland lymphocytic infiltration in EGCG/water-fed NOD/Lt mice", "details": "0.2% EGCG in drinking water", "description": "Animals were fed either with EGCG/water or water only. At the age of 8 (n=36), 16 (n=36) and 22 weeks (n=27), submandibular glands were dissected, processed and stained by H&E. Three randomly selected areas of lymphocytic infiltrates were measured in each gland as relative density units generated by BIOQUANT NOVA PRIME 6.75 software, representing area sizes. Error bars are standard error of means (SEM). […] An animal study was conducted to examine whether EGCG fed prior to development of exocrinopathy is protective against salivary gland lymphocyte infiltration and gland abnormalities. Since EGCG is the most abundant green tea polyphenol, and widely used in scientific studies, this compound was selected for this feasibility study using 0.2% EGCG in drinking water (Gillespie K, et al. 2008)."}, "[7]": {"system": "TUNEL-positive cells in submandibular gland", "experiment": "Apoptotic activity in salivary glands by TUNEL staining, NOD/Lt mice", "details": "0.2% EGCG in drinking water, 8, 16, 22 weeks", "source_text": "Submandibular salivary gland samples from BALB/c (left), water-fed (middle), and EGCG-fed (right) NOD/Lt mice were stained with ApopTag Plus Peroxidase in situ apoptosis detection method according to the manufacturer's instructions. Arrows point to the nuclear staining of TUNEL-positive cells. […] Submandibular salivary gland samples from BALB/c (left), water-fed (middle), and EGCG-fed (right) NOD/Lt mice were immunostained with the anti-PCNA antibody. Arrows point to the nuclear staining of PCNA-positive cells. […] Submandibular salivary gland samples from BALB/c (left), water-fed (middle), and EGCG-fed (right) NOD/Lt mice were immunostained with the anti-Ki-67 antibody. Arrows point to the nuclear staining of Ki-67-positive cells. […] Solid bars represent the average percentage of TUNEL-positive cells in the submandibular gland of water-fed NOD/Lt mice. Open bars represent the average of TUNEL-positive cells in the submandibular gland of EGCG-fed NOD/Lt mice. […] Solid bars represent the average percentage of PCNA-positive cells in the submandibular gland of water-fed NOD/Lt mice. […] The apoptotic activity was determined by TUNEL staining of the salivary glands (FIG. 5A) and quantification (FIG. 6A). […] Although it was not determined which cells were undergoing apoptosis, there was no significant apoptotic activity in the majority of secretory cells (Gillespie K, et al. 2008)."}}, "data": [{"smiles": "O=C(O[C@@H]1Cc2c(O)cc(O)cc2O[C@@H]1c1cc(O)c(O)c(O)c1)c1cc(O)c(O)c(O)c1", "note": "[EGCG, epigallocatechin-3-gallate]", "values": [{"measurement": "SOD1 level in the pancreas", "setting": "[1]", "result": "normalized to BALB/c levels"}, {"measurement": "peroxiredoxin 6 level in the pancreas", "setting": "[2]; pancreas, EGCG-fed NOD mice, n=12, P<0.0001", "result": "normalized to BALB/c levels"}, {"measurement": "expression of peroxiredoxin 6 vs water only fed mice", "setting": "[2]; submandibular salivary glands, EGCG-fed NOD/Lt mice, n=12, p<0.04", "result": "significantly higher"}, {"measurement": "expression of catalase vs water only fed mice", "setting": "[3]", "result": "significantly higher"}, {"measurement": "PCNA-positive cells in submandibular glands", "setting": "[4]", "result": "considerably reduces the rise of PCNA"}, {"measurement": "Ki-67 levels in submandibular glands", "setting": "[5]", "result": "affected by EGCG in the same pattern"}, {"measurement": "average area of lymphocytic infiltration vs water-fed group", "setting": "[6]; 16 weeks of age, p=0.026", "result": "significantly lower"}, {"measurement": "average area of lymphocytic infiltration vs water-fed group", "setting": "[6]; 22 weeks of age", "result": "no significant difference"}, {"measurement": "apoptosis in the glandular epithelium (TUNEL)", "setting": "[7]", "result": "did not affect"}, {"measurement": "apoptosis in the infiltrates (TUNEL)", "setting": "[7]", "result": "initially raising levels, but blocking the considerable increase seen at 22 weeks in water-fed mice"}]}]}
